Holding throughout (test): Ambit kinase profiling, competition binding
The target of one experiment is T1, STK35 (Homo sapiens, UniProt Q8TDR2).
T1 construct: purchased Ambit Biosciences (KINOMEscan)
On the procedure:
(§1) Also included in the kinase profile are four isoforms of PKC (δ, ε, η, θ) and eight isoforms of CAMKs (CAMKIα, δ, γ; CAMKIIα, β, δ, γ; CAMK4).
(§2) The global kinase profiling experiment was performed by Ambit Biosciences.

Another experiment concerns the target T2, p38-delta (Homo sapiens, UniProt O15264).
T2 construct: purchased Ambit Biosciences (KINOMEscan)
T2 sequence (O15264 1-365): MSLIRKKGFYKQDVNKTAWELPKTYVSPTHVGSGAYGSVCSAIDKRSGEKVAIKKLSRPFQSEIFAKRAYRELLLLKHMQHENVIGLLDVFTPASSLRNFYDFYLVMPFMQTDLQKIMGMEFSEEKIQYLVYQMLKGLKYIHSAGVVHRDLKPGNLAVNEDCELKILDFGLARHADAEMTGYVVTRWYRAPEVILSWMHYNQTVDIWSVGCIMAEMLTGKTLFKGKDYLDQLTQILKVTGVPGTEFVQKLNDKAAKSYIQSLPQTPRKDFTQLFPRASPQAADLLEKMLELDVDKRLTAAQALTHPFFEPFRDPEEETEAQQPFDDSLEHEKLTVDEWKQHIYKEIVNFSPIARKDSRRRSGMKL
On the procedure:
as §1, §2

The target in the next experiment is T3, p38-gamma (Homo sapiens, UniProt P53778).
T3 construct: purchased Ambit Biosciences (KINOMEscan)
T3 sequence (P53778 1-367): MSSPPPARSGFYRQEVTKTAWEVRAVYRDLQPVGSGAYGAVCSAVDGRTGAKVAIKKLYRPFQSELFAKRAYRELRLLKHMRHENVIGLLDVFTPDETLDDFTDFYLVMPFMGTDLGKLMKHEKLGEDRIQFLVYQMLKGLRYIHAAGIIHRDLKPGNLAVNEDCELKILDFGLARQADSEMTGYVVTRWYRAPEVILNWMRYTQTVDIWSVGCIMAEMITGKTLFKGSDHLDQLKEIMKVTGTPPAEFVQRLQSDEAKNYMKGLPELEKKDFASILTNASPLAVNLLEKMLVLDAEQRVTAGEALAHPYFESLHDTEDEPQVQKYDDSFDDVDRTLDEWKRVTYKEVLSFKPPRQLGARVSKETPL
On the procedure: as §1, §2

For the next experiment, the target named is T4, STK16 (Homo sapiens, UniProt O75716).
T4 construct: purchased Ambit Biosciences (KINOMEscan)
T4 sequence (O75716 whole entry): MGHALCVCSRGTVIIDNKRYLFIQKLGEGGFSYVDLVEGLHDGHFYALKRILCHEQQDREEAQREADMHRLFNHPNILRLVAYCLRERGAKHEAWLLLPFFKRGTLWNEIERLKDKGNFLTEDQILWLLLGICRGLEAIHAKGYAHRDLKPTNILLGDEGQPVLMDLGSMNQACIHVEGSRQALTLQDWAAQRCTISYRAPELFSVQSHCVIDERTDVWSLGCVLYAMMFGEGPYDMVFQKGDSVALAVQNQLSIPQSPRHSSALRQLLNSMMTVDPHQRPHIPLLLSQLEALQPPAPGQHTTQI
On the procedure:
as §1, §2

A further experiment deals with T5, BTK (Homo sapiens, UniProt Q06187).
T5 construct: purchased Ambit Biosciences (KINOMEscan)
T5 sequence (Q06187 whole entry): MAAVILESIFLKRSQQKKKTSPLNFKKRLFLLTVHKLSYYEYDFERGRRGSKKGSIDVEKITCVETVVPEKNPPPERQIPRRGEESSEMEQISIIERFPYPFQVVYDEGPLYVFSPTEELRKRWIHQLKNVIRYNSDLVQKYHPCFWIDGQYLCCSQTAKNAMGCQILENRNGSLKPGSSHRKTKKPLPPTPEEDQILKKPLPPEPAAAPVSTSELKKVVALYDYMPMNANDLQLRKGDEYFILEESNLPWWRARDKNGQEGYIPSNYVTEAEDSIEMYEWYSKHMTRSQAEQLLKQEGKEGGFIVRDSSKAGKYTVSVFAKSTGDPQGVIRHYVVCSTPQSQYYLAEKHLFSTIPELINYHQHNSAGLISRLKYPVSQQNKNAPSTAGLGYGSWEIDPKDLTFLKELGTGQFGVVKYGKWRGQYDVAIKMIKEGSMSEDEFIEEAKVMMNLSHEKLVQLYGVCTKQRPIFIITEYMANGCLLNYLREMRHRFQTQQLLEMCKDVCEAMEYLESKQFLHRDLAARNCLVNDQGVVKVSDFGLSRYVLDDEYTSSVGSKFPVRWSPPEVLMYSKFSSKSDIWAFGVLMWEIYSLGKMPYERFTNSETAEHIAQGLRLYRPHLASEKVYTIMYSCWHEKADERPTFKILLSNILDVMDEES
As to conditions: for % Competition: 10 µM. On the procedure: as §1, §2

Another experiment has as its target T6, CSNK1A1L (Homo sapiens, UniProt Q8N752).
T6 construct: purchased Ambit Biosciences (KINOMEscan)
T6 sequence (Q8N752 1-337): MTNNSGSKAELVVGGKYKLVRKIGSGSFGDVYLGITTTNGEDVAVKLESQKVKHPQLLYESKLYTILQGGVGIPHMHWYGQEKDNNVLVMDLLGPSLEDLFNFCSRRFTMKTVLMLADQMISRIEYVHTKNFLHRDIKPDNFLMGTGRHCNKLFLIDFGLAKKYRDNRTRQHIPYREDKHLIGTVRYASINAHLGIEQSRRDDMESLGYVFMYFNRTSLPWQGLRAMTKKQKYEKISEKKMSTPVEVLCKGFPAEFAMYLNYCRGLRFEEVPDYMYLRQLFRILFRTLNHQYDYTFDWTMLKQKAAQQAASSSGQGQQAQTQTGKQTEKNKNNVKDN
On the procedure: as §1, §2

For a further experiment, the target named is T7, YANK3 (Homo sapiens, UniProt Q86UX6).
T7 construct: purchased Ambit Biosciences (KINOMEscan)
T7 sequence (Q86UX6 whole entry): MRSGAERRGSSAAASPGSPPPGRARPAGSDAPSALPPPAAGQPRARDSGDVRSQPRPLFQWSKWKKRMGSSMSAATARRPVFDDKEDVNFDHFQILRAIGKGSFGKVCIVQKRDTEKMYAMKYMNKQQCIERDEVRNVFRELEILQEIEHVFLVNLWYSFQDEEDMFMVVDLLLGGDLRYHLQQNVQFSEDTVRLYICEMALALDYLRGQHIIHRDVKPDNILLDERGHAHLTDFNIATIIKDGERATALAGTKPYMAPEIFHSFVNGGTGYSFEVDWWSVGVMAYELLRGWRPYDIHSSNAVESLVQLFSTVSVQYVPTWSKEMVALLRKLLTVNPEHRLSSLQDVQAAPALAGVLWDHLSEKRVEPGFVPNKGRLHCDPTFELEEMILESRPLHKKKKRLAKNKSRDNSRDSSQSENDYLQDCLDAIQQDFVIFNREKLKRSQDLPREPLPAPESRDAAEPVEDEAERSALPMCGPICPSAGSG
On the procedure:
as §1, §2

Another experiment deals with T8, SNARK (Homo sapiens, UniProt Q9H093).
T8 construct: purchased Ambit Biosciences (KINOMEscan)
T8 sequence (Q9H093 1-628): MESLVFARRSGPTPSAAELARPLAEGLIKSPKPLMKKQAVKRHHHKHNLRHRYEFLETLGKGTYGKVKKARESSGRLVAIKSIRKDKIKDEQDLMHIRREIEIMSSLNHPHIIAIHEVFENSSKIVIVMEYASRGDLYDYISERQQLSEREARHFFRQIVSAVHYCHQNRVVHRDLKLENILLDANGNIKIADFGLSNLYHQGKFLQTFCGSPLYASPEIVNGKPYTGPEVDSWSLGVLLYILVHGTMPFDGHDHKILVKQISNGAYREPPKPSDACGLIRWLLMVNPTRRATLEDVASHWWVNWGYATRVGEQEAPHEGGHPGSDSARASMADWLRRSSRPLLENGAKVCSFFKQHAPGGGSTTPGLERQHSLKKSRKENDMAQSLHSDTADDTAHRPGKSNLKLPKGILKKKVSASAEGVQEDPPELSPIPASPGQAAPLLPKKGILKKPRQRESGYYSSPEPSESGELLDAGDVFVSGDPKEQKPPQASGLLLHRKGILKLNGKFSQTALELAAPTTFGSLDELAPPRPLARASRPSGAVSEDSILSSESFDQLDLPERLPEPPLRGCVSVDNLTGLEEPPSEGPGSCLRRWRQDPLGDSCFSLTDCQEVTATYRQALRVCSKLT
Conditions: for % Competition: 10 µM. On the procedure: as §1, §2

In a further experiment the target is T9, GSK3A (Homo sapiens, UniProt P49840).
T9 construct: purchased Ambit Biosciences (KINOMEscan)
T9 sequence (P49840 whole entry): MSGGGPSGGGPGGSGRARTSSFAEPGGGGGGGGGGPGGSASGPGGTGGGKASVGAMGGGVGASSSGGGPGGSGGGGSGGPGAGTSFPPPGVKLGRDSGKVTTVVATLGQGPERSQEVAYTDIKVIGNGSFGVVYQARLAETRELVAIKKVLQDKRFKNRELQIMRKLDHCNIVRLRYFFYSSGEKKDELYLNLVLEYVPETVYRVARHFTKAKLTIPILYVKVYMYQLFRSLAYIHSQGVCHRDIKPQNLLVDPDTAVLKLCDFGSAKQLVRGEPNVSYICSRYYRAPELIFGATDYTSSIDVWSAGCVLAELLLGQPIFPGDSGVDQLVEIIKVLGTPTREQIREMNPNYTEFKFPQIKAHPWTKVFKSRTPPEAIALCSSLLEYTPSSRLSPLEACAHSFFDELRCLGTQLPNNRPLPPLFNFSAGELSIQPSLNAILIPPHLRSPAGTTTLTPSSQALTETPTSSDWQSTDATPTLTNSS
On the procedure: as §1, §2

For a further experiment, the target named is T10, MEK4 (Homo sapiens, UniProt P45985).
T10 construct: purchased Ambit Biosciences (KINOMEscan)
T10 sequence (P45985 1-399): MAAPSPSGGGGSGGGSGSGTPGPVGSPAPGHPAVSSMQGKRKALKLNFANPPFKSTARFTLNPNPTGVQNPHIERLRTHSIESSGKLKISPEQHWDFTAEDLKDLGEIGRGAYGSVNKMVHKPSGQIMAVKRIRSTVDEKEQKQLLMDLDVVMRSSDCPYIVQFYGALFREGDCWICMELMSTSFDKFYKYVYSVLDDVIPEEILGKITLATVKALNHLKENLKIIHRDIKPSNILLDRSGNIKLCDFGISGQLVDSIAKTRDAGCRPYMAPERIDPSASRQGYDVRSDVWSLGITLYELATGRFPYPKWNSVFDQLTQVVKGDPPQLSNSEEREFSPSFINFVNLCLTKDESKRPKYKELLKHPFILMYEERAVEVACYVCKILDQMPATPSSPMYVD
On the procedure:
as §1, §2

Another experiment has as its target T11, RET (Homo sapiens, UniProt P07949).
T11 construct: purchased Ambit Biosciences (KINOMEscan)
On the procedure:
as §1, §2

A further experiment addresses T12, CSNK1G1 (Homo sapiens, UniProt Q9HCP0).
T12 construct: purchased Ambit Biosciences (KINOMEscan)
Conditions: for % Competition: 10 µM. On the procedure: as §1, §2

The mark [1] stands for this setting: compound concentration 10 uM, read-out: Percent Competition.

The structures appear in SMILES notation. Like-named read-outs stand apart in the source and are kept apart here.

T1 sequence (Q8TDR2 whole entry): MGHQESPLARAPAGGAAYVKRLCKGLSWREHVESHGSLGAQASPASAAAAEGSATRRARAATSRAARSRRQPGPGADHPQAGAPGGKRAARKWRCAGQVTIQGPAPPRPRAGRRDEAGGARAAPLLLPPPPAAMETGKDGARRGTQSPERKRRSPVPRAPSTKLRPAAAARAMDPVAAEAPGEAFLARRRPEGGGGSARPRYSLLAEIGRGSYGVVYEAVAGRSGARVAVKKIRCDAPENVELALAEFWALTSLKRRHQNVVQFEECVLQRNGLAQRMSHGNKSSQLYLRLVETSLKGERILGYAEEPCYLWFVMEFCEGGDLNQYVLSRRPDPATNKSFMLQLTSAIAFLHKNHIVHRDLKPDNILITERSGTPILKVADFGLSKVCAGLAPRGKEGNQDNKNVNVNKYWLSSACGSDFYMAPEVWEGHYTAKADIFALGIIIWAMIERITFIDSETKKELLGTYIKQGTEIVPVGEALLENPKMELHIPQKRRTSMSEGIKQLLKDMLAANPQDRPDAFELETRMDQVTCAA
T11 sequence (P07949 29-1114): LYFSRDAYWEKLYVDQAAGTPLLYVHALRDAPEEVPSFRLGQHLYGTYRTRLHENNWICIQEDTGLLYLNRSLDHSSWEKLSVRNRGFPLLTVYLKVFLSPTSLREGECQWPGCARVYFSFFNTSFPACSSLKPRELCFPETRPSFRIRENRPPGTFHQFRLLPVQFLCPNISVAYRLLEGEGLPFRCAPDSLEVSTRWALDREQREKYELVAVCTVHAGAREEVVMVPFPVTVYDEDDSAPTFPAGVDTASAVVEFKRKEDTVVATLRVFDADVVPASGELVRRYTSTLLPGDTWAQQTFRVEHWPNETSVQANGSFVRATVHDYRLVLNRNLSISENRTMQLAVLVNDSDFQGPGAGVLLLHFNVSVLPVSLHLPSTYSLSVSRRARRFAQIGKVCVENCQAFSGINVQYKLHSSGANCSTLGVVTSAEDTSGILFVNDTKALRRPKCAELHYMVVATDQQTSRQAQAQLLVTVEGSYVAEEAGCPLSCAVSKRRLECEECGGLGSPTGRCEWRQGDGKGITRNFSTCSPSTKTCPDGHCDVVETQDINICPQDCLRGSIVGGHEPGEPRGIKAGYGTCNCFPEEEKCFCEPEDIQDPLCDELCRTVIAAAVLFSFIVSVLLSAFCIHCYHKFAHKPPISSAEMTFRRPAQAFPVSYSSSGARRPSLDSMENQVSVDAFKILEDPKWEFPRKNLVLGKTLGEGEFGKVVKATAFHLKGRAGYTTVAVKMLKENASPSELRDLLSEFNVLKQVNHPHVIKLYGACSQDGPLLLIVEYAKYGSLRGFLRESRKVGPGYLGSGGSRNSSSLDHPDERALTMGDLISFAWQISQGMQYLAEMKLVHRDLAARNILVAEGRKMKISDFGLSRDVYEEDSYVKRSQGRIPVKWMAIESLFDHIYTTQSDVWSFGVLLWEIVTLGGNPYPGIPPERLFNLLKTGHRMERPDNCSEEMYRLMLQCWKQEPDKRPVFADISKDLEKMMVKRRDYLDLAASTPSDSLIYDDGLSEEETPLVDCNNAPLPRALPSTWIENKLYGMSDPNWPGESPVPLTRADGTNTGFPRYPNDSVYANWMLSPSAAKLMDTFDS
T12 sequence (Q9HCP0 whole entry): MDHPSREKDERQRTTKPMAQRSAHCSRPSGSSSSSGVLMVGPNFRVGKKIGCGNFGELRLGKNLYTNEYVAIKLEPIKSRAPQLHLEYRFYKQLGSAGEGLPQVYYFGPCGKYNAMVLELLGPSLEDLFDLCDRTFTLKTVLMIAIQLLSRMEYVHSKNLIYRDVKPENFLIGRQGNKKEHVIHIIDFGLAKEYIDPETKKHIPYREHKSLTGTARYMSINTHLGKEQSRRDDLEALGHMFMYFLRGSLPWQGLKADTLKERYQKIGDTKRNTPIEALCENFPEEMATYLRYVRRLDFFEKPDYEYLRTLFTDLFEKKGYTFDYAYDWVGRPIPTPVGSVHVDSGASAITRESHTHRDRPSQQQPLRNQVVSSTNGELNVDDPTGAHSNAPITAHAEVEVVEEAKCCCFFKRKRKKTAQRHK

Regarding `CC(O)CNc1cc(-c2[nH]c3cccnc3c2-c2ccc(F)cc2)ccn1` (stereo not drawn) [Compound 140], the inhibition at 10 µM on STK35 (read-out: % Competition) is less than 50%; at STK16 (read-out: % Competition) it was less than 50%; at CSNK1A1L (read-out: % Competition), 86%; on YANK3 (read-out: % Competition), less than 50%; on GSK3A (read-out: % Competition), less than 50%; at MEK4 (read-out: % Competition) it was less than 50%. Moreover, the inhibition at 10 µM at RET (read-out: % Competition) was less than 50%. Besides, the “% Competition” value is less than 50% on p38-delta (10 µM); less than 50% at p38-gamma (10 µM); less than 50% on BTK; less than 50% on SNARK; 94% on CSNK1G1.

Consider `Fc1ccc(-c2c(-c3ccncc3)[nH]c3nccnc23)cc1` [RO1155697-000-005], for which the inhibition at 10 µM on STK35 (STK35, compound concentration 10 uM, read-out: Percent Competition) was determined as 79%; at p38-delta (setting [1]), 82%; on p38-gamma (setting [1]), 90%; on STK16 (STK16, compound concentration 10 uM, read-out: Percent Competition), 96%; at CSNK1A1L (CSNK1A1L, compound concentration 10 uM, read-out: Percent Competition), 95%; at YANK3 (YANK3, compound concentration 10 uM, read-out: Percent Competition), 67%. The inhibition at 10 µM on GSK3A (GSK3A, compound concentration 10 uM, read-out: Percent Competition) worked out at 98%; at MEK4 (MEK4, compound concentration 10 uM, read-out: Percent Competition) it was 87%; at RET (RET, compound concentration 10 uM, read-out: Percent Competition) it was 68%. Further, the “Percent Competition” value at BTK (compound concentration 10 uM) is on record as 91%; at SNARK (compound concentration 10 uM), 89%; at CSNK1G1 (compound concentration 10 uM), 78%.

Take `Fc1ccc(-c2c(-c3ccncc3)[nH]c3nccnc23)cc1` [Compound 122]: the inhibition at 10 µM on STK35 (STK35, 10 µM, read-out: % Competition) was 79%; at p38-delta (10 µM, read-out: % Competition), 82%; at p38-gamma (10 µM, read-out: % Competition), 90%; on STK16 (STK16, 10 µM, read-out: % Competition) it was 96%; on CSNK1A1L (CSNK1A1L, 10 µM, read-out: % Competition), 95%; on YANK3 (YANK3, 10 µM, read-out: % Competition), 67%. In addition, the inhibition at 10 µM on GSK3A (GSK3A, 10 µM, read-out: % Competition) is 98%; on MEK4 (MEK4, 10 µM, read-out: % Competition), 87%; at RET (RET, 10 µM, read-out: % Competition), 68%. The results for the “% Competition” value at BTK, on SNARK and at CSNK1G1 were 91%, 89% and 78%, respectively.
